Tested on: hepatitis B virus
Assay: Anti-viral effect on hepatitis B virus in SCID mice injected with patient serum, plasma HBsAg by ELISA
Format: in vivo
Experimental: The serum of the patient infected with hepatitis B virus was collected and injected into the SCID mice. Interferon-alpha, Interferon-alpha-containing emulsions and untreated groups of mice were divided to evaluate antiviral bioactivity of inteferon. Different formulations were administered at the interferon-alpha dose of 1000 units/g body weight of mice. Three days later, blood was collected and the concentrations of hepatitis B virus surface antigen (HBsAg) in plasma were determined by ELISA method.

Interferon-alpha
anti-viral effect compared to the untreated control (p<0.05): statistically significant anti-viral effect
relative HBsAg ratio to the untreated control (plasma, three days after 1000 units/g body weight, untreated defined as 1.0): 0.29±0.4
